Test results: US20250059139A1, “COMPOUNDS FOR TREATMENT OF CANCER” (THE JOHNS HOPKINS UNIVERSITY, priority 2021, published 2025)

Columns and labels:
[1] = test system: LNCaP and LNCaP/AHR-KD xenografts; assay: In vivo growth of LNCaP vs. LNCaP/AHR-KD xenografts in intact male hosts; set-up: species or system human; details: daily oral 10 mg/kg/d from day 53 post-inoculation
From the text: (§1) Prostate Cancer Models. The source, history, and characteristics of the human prostate cancer cell lines and PDXs used, as well as cell culture conditions for their in vitro maintenance and the in vivo protocol for xenograft growth in triple immune-deficient NSG (i.e. NOD.Cg-PrkdcScidIl2rgtmlWji/Szj), adult (>8 week old) male mice obtained from the Sidney Kimmel Comprehensive Cancer Center (SKCCC) Animal Core Facility are described previously (Isaacs 2013; Brennen et al. JCI Insight. 2021, 6(8):e146827; Zhu et al. Oncogene 2020, 39(45): 6935-6949). […] In vitro growth curves were determined as described (Isaacs 2013). In vivo growth response to oral daily TasQ (10 mg/kg/d) of TRAMP-C2 mouse prostate cancers was evaluated in C57BL/6J syngeneic wild type vs. NOX-2 vs. iNOS null male mice obtained from Jackson Laboratory (Bar Harbor, ME). Growth response to oral daily TasQ (10 mg/kg/d) of TRAMP-C2 and B6CaP mouse prostate cancers was also evaluated in S100A9 null C57BL′6J male mice obtained from Dmitry Gabrilovich (Wistar Institute). […] In vitro growth curves were determined as described (Isaacs 2013). Growth response to daily oral TasQ vs. ESATA-20 (both at 10 mg/kg/d) of Myc-CaP-CR mouse prostate cancer was evaluated in syngeneic FVB/NJ castrate male mice from Jackson Laboratory. […]

fl-HDAC4 = target: T1, fl-HDAC4 (Homo sapiens, UniProt P56524); assay: HDAC4 enzymatic assay with Lys(Tfa)-AMC substrate; type: biochemical
T1 construct: Full-length (fl) [A.A. 1-1082] recombinant human histone deacetylase 4 (rhHDAC4) protein; FLAG (N); GST (given as 'with or without'); made in house; host or cells: HEK293-T
Protocol: HDAC4 Enzymatic Assay. HDAC4 activity of the various recombinant forms used through these studies was assayed using the small non-protein Lys(Tfa)-AMC as described previously (Bottomley et al. J. Biol. Chem. 2008, 283:26694-26704). The specificity of this assay is documented via its inhibition by a small molecule trifluoroacetylthiophene-trifluoromethylketone derivative (TFT-PIP) described previously (id.).
Thus, TasQ's inhibition of HDAC4/NCoR1 formation involves only its binding to HDAC4. To resolve whether such TasQ binding involves the ZCD vs. ZRD in HDAC4, we took advantage of the fact that while HDAC4 has only marginal deacetylase activity against acetylated lysine-containing proteins, it can deacetylate a small non-protein trifluoroacetamide substrate (a.k.a., Lys(Tfa)-AMC). This reaction is inhibited by a small molecule trifluoroacetylthiophene-trifluoromethylketone derivative [a.k.a., TFT-PIP (FIG. 16)] due to its binding to the catalytic Zn^2+ in the ZCD, which locks the ZRD in the open conformation (Bottomley 2008).

CYP1A1 = CYP1A1 mRNA induction in LNCaP cells (RT-PCR); type: cell-based; details: human, read-out: EC50 as a CYP1A inducer in LNCaP cells
From the text: Real-time quantitative PCR (Q-PCR) analysis. […] ID NO: 2) and […] ID NO: 3). […] ID NO: 4) and […] ID NO: 5).

[2] = test system: TRAMP-C2 mouse prostate cancer; assay: In vivo growth of TRAMP-C2 allografts in C57BL/6J wild type vs. NOX2-, iNOS-, S100A9-KO hosts; details: daily oral 10 mg/kg/d over a 3-week period; wild type and KO hosts
From the text: as §1

T1 sequence (P56524 whole entry): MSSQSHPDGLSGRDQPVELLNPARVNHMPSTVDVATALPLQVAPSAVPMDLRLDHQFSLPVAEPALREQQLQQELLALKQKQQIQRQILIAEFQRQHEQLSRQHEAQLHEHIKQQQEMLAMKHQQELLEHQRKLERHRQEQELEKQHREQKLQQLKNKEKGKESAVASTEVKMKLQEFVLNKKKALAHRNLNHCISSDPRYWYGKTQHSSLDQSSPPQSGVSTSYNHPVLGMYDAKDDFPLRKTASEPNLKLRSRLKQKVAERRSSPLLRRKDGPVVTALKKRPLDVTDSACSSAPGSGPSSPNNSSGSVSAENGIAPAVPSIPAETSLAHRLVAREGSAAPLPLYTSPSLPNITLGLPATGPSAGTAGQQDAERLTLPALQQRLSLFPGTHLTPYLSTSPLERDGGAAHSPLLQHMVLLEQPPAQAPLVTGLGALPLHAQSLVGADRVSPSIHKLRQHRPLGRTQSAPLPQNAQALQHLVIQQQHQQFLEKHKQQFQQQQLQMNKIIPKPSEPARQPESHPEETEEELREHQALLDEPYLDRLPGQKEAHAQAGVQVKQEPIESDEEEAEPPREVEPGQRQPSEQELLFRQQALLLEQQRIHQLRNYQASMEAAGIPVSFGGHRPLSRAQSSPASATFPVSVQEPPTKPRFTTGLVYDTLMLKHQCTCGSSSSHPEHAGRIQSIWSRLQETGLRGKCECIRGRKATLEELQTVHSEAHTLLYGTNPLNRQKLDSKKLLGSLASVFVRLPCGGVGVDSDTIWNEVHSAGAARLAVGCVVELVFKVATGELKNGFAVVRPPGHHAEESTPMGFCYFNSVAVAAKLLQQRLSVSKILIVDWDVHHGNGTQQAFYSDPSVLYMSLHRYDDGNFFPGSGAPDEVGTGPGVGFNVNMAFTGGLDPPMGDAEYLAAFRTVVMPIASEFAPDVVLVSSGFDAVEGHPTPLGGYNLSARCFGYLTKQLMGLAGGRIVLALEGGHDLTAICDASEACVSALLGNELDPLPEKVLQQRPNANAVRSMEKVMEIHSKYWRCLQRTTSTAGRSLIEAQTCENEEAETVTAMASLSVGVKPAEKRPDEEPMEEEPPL

COc1cccc2c1c(O)c(C(=O)N(C)c1ccc(C(F)(F)F)cc1)c(=O)n2C [TasQ, Tasquinimod]
growth response of LNCaP and LNCaP/AHR-KD xenografts [1]: equally inhibited | effect on enzymatic activity of fl-HDAC4 (fl-HDAC4): did not inhibit | EC50 (CYP1A1): 1000 nM | inhibition of tumor growth [2]: > 70%
